ChEMBL document CHEMBL1909046, “DrugMatrix in vitro pharmacology data”

Assays:
[1] = DRUGMATRIX: Glutamate, NMDA, Phencyclidine radioligand binding (ligand: [3H] TCP); type: cell membranes, Rattus norvegicus, Wistar, Cerebral cortex, Membrane; conditions: Not Active = under 50% inhibition at 10 µM
Glycine receptor = Glycine receptor (Rattus norvegicus, UniProt P22771+P24524+P07727+P20781); type: cell membranes, Wistar, Spinal cord, Membrane; note: in other assays of this panel Not Active means under 50% inhibition at 10 µM
Cytochrome P450 2E1 = Cytochrome P450 2E1 (Homo sapiens, UniProt P05181); conditions: bti-tn-5b1-4; note: in other assays of this panel Not Active means under 50% inhibition at 10 µM
Carbonic anhydrase 2 = Carbonic anhydrase 2 (Homo sapiens, UniProt P00918); assay: DRUGMATRIX: Carbonic Anhydrase II enzyme inhibition (substrate: 4-Nitrophenyl acetate (4-NPA)); type: tissue-based, Erythrocyte; conditions: erythrocyte; Not Active = under 50% inhibition at 10 µM
[2] = target: 5-hydroxytryptamine receptor 4 (Cavia porcellus, UniProt O70528); type: cell membranes, Dunkin-Hartley, Striatum, Membrane; note: in other assays of this panel Not Active means under 50% inhibition at 10 µM
[3] = DRUGMATRIX: Phosphodiesterase PDE4 enzyme inhibition (substrate: [3H]cAMP + cAMP); conditions: u-937; Not Active = under 50% inhibition at 10 µM
Estrogen receptor beta = Estrogen receptor beta (Homo sapiens, UniProt Q92731); conditions: sf9; note: in other assays of this panel Not Active means under 50% inhibition at 10 µM
[4] = target: T1, Muscarinic acetylcholine receptor M5 (Homo sapiens, UniProt P08912); type: cell membranes, Membrane; conditions: cho-k1; note: in other assays of this panel Not Active means under 50% inhibition at 10 µM
T1 sequence (P08912 whole entry): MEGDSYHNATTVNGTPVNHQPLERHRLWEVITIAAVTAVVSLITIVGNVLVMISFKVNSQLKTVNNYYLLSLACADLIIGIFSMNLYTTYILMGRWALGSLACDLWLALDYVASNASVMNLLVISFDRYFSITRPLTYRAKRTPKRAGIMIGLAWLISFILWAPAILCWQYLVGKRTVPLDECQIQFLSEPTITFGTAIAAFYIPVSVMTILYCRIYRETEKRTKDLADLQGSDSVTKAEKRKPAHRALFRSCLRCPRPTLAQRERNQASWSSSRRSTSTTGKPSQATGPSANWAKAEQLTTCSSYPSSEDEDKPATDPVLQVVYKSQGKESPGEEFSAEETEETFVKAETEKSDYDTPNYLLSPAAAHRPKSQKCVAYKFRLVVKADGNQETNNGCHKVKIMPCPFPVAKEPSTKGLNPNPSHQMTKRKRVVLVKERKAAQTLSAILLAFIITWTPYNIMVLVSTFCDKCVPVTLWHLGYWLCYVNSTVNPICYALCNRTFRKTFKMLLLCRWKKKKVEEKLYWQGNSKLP

Chain of Cytochrome P450 2E1 (P05181 whole entry): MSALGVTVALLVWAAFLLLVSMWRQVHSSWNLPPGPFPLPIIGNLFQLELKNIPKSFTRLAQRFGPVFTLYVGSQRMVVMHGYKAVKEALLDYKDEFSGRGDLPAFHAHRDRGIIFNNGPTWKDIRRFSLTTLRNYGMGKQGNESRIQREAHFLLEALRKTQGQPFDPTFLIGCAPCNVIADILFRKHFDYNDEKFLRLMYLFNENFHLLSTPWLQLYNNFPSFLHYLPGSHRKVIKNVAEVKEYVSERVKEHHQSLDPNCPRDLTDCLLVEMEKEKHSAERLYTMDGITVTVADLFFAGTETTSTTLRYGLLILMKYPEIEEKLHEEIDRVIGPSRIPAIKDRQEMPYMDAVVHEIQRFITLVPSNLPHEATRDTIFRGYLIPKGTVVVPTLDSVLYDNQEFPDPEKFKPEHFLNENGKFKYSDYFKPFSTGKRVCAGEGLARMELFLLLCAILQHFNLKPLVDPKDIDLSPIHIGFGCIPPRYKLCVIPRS
Chain of 5-hydroxytryptamine receptor 4 (O70528 whole entry): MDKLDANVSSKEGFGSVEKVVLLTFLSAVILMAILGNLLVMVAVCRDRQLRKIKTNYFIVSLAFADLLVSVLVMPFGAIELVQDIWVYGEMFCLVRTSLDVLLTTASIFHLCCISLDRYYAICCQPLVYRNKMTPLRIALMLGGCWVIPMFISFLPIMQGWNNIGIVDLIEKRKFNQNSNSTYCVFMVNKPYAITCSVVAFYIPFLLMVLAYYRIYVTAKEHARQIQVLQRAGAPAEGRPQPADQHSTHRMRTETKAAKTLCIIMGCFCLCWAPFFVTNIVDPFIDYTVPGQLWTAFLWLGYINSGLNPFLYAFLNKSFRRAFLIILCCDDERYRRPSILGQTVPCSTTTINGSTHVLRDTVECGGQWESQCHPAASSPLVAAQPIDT
Chain of Estrogen receptor beta (Q92731 whole entry): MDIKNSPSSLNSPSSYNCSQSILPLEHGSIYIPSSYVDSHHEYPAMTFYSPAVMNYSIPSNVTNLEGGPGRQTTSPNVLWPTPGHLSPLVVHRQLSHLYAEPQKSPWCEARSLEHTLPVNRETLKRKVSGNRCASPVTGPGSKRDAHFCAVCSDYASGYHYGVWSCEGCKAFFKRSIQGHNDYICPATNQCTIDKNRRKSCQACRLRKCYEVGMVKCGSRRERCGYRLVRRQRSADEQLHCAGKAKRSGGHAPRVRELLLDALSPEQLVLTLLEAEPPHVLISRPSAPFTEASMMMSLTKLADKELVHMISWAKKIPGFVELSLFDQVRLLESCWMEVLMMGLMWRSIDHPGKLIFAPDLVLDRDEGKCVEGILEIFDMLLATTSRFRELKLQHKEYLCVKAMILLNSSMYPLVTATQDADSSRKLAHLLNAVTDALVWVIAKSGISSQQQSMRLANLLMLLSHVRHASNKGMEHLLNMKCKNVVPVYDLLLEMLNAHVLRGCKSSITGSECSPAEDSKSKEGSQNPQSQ

Cc1cccc(Nc2cc(Cl)nc(SCC(=O)O)n2)c1C [PIRINIXIC ACID]
Not Active: IC50 [1] | Ki [1] | IC50 (Glycine receptor) | IC50 (Cytochrome P450 2E1) | Ki (Cytochrome P450 2E1) | IC50 (Carbonic anhydrase 2) | IC50 [2] | IC50 [3] | Ki [3] | IC50 (Estrogen receptor beta) | IC50 [4]

CC(CCc1ccc(O)cc1)NCCc1ccc(O)c(O)c1 (stereo unspecified) [DOBUTAMINE]
Not Active: IC50 [1] | Ki [1] | IC50 (Glycine receptor) | IC50 (Cytochrome P450 2E1) | Ki (Cytochrome P450 2E1) | IC50 (Carbonic anhydrase 2) | IC50 [2] | IC50 [3] | Ki [3] | IC50 (Estrogen receptor beta) | IC50 [4]

CC(C)(Sc1cc(C(C)(C)C)c(O)c(C(C)(C)C)c1)Sc1cc(C(C)(C)C)c(O)c(C(C)(C)C)c1 [PROBUCOL]
Not Active: IC50 [1] | Ki [1] | IC50 (Glycine receptor) | IC50 (Cytochrome P450 2E1) | Ki (Cytochrome P450 2E1) | IC50 (Carbonic anhydrase 2) | IC50 [2] | IC50 [3] | Ki [3] | IC50 (Estrogen receptor beta) | IC50 [4]

CCOC(=O)C1=C(C)NC(C)=C(C(=O)OC)C1c1cccc(Cl)c1Cl (stereo unspecified) [FELODIPINE]
Not Active: IC50 [1] | Ki [1] | IC50 (Glycine receptor) | IC50 (Cytochrome P450 2E1) | Ki (Cytochrome P450 2E1) | IC50 (Carbonic anhydrase 2) | IC50 [2] | IC50 [3] | Ki [3] | IC50 (Estrogen receptor beta) | IC50 [4]

C[C@H](C(=O)O)c1cccc(C(=O)c2ccccc2)c1 [DEXKETOPROFEN]
Not Active: IC50 [1] | Ki [1] | IC50 (Glycine receptor) | IC50 (Cytochrome P450 2E1) | Ki (Cytochrome P450 2E1) | IC50 (Carbonic anhydrase 2) | IC50 [2] | IC50 [3] | Ki [3] | IC50 (Estrogen receptor beta) | IC50 [4]

O=c1cc(-c2ccccc2)oc2ccc3ccccc3c12 [BETA-NAPHTHOFLAVONE]
Not Active: IC50 [1] | Ki [1] | IC50 (Glycine receptor) | IC50 (Cytochrome P450 2E1) | Ki (Cytochrome P450 2E1) | IC50 (Carbonic anhydrase 2) | IC50 [2] | IC50 [3] | Ki [3] | IC50 (Estrogen receptor beta) | IC50 [4]

Cc1c(N(C)CS(=O)(=O)[O-])c(=O)n(-c2ccccc2)n1C.[Na+] [DIPYRONE SODIUM]
Not Active: IC50 [1] | Ki [1] | IC50 (Glycine receptor) | IC50 (Cytochrome P450 2E1) | Ki (Cytochrome P450 2E1) | IC50 (Carbonic anhydrase 2) | IC50 [2] | IC50 [3] | Ki [3] | IC50 (Estrogen receptor beta) | IC50 [4]

CO[C@H]1[C@@H](O)[C@H](N)[C@@H](O[C@H]2O[C@H]([C@H](C)N)CC[C@H]2N)[C@H](O)[C@@H]1N(C)C(=O)CN [ASTROMICIN]
Not Active: IC50 [1] | Ki [1] | IC50 (Glycine receptor) | IC50 (Cytochrome P450 2E1) | Ki (Cytochrome P450 2E1) | IC50 (Carbonic anhydrase 2) | IC50 [2] | IC50 [3] | Ki [3] | IC50 (Estrogen receptor beta) | IC50 [4]

CCn1cc(C(=O)O)c(=O)c2cc(F)c(N3CCNCC3)nc21 [ENOXACIN]
Not Active: IC50 [1] | Ki [1] | IC50 (Glycine receptor) | IC50 (Cytochrome P450 2E1) | Ki (Cytochrome P450 2E1) | IC50 (Carbonic anhydrase 2) | IC50 [2] | IC50 [3] | Ki [3] | IC50 (Estrogen receptor beta) | IC50 [4]

CCC(=O)O[C@H]1[C@H](O[C@@H]2[C@@H](C)[C@H](O[C@H]3C[C@@](C)(OC)[C@@H](O)[C@H](C)O3)[C@@H](C)C(=O)O[C@H](CC)[C@@](C)(O)[C@H](O)[C@@H](C)C(=O)[C@H](C)C[C@@]2(C)O)O[C@H](C)C[C@@H]1N(C)C [ERYTHROMYCIN PROPIONATE]
Not Active: IC50 [1] | Ki [1] | IC50 (Glycine receptor) | IC50 (Cytochrome P450 2E1) | Ki (Cytochrome P450 2E1) | IC50 (Carbonic anhydrase 2) | IC50 [2] | IC50 [3] | Ki [3] | IC50 (Estrogen receptor beta) | IC50 [4]

COBALT(II) ACETYLACETONATE
Not Active: IC50 [1] | Ki [1] | IC50 (Glycine receptor) | Ki (Glycine receptor) | IC50 (Cytochrome P450 2E1) | Ki (Cytochrome P450 2E1) | IC50 (Carbonic anhydrase 2) | Ki (Carbonic anhydrase 2) | IC50 [2] | Ki [2] | IC50 [3] | Ki [3] | IC50 (Estrogen receptor beta) | Ki (Estrogen receptor beta) | IC50 [4] | Ki [4]
